Consider 1 molecule from patent publication US20260306527A1, “PRMT INHIBITOR COMPOUNDS AND THE USES THEREOF” (Purdue Research Foundation, priority 2023, published 2026).

SMILES strings stand for the structures.

The subject of one experiment is PRMT3/4/5. The experiment in a line: inhibition of PRMT3/4/5 (summary). In kind it is biochemical. Conditions: range over PRMT3/4/5. The method, then:
(§1) The selectivity of compounds YD1113 and YD1290 on PRMTs were performed by Reaction Biology Corp.

Experiment [1] concerns the target T1, PRMT1 (Homo sapiens, UniProt Q99873).
T1 construct: made in house
In words: thermal shift assay PRMT1. The experiment is classed as binding. Conditions: 100 μM compound, 10 μM protein. The method, then:
The fluorescence-based thermal shift assay was performed using a StepOne plus qPCR instrument (Thermal Fisher). For PRMT1, 10 μM of protein was mixed with 2× sypro orange and DMSO, or 100 μM SAM, or 100 μM YD1113, or 100 μM YD1290 in a buffer consisting of 2.5 mM HEPES (pH=7.0), 25 mM NaCl, 25 μM EDTA, 50 μM TCEP, 0.01% Triton X-100. For PRMT3, 20 μM of protein was mixed with 2× sypro orange and DMSO, or 100 μM SAM, or 100 μM YD1113, or 100 μM YD1290 in a buffer consisting of 20 mM Tris (pH=7.5), 0.01% Triton X-100. For PRMT4, 20 μM of protein was mixed with 2× sypro orange and DMSO, or 100 μM SAM, or 100 μM YD1113, or 100 μM YD1290 in a buffer consisting of 20 mM bicine (pH=8.5), 0.01% Triton X-100. All samples were heated from 25° C. to 75° C. at an increased rate of 0.5° C. per minute. Protein denaturation was monitored by the increased fluorescence signal of Sypro Orange, which captures exposed hydrophobic residues during thermal unfolding. The recorded curves were analyzed by the software StepOne plus and plotted in GraphPad Prism 8 software.
Next, the thermal shift assay (TSA) was conducted as an orthogonal method to examine the effects of YD1290 on the thermal stability of PRMT1, 3, and 4 (Figure S1).

Experiment [2] deals with T1, PRMT1. In words: SAHH-coupled fluorescence assay, inhibition of PRMT1. The experiment is classed as biochemical. Summed up: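 PRMT1 (0.1 μM) was run with 10 μM AdoMet, 5 μM SAHH and 10 μM ThioGlo4 in 2.5 mM HEPES pH 7.0, 25 mM NaCl, 25 μM EDTA, 50 μM TCEP and 0.01% Triton X-100. Fluorescence (ex 400/em 465 nm) was monitored for 15 min. Assays were done in duplicate.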

Another experiment concerns the target PRMT5 (Homo sapiens, UniProt O14744). The experiment in a line: selectivity of YD1113 on PRMT panel, PRMT5. The experiment is classed as biochemical. Conditions: read-out: IC50 value PRMT5. The method, then:
as §1
(§2) Next, the selectivity of YD1113 was investigated on a panel of PRMTs at 10 μM.

In experiment [3] the test system is PRMT4. The experiment in a line: radioactive assay (Reaction Biology Corp.), inhibition of PRMT4. The experiment is classed as biochemical. As to the method:
(§3) Next, the inhibition activity of the library was investigated for five PRMT members from type I PRMTs.
(§4) The PRMT 4, 6 and 8 methylation assays were performed by Reaction Biology corp.

Experiment [4] concerns the target T2, PRMT4 (Homo sapiens, UniProt Q86X55).
T2 sequence (Q86X55 1-608): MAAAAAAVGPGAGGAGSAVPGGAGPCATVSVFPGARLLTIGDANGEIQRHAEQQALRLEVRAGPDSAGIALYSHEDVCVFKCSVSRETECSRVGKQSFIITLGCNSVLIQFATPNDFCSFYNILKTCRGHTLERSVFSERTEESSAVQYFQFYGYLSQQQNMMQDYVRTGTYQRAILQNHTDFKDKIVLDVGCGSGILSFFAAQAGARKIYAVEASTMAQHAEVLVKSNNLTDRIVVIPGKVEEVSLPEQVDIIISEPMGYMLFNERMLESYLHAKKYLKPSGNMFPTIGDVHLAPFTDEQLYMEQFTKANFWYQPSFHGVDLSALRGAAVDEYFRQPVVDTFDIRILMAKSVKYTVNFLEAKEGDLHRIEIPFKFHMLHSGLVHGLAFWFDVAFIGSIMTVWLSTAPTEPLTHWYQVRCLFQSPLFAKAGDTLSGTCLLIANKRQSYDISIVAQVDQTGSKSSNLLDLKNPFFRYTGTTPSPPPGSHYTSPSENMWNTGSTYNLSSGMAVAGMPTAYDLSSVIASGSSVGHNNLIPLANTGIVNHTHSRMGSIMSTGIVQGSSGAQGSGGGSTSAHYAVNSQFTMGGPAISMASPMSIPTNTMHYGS
The description is as above. In kind it is biochemical. As to the method: as §3, §4

Another experiment addresses PRMT8 (Homo sapiens, UniProt Q9NR22). In words: selectivity of YD1113/YD1290 on PRMT panel, PRMT8. In kind it is biochemical. Conditions: 10 μM; PRMT panel. The method, then: as §1, §2
After validating the benzyl urea moiety as an unconventional homocysteine mimic of SAH for PRMTs, it was hypothesized that incorporating the benzyl urea moiety into the original pan PRMT inhibitor II757 would build a potent bisubstrate inhibitor. […] To enable a stable tri-substitution, the sulfur atom with a nitrogen atom was replaced. YD1290 was synthesized following the reported methods 9, 15 and tested in a radioactivity assay for PRMTs (FIG. 6b).

T1 sequence (Q99873 whole entry, species assumed): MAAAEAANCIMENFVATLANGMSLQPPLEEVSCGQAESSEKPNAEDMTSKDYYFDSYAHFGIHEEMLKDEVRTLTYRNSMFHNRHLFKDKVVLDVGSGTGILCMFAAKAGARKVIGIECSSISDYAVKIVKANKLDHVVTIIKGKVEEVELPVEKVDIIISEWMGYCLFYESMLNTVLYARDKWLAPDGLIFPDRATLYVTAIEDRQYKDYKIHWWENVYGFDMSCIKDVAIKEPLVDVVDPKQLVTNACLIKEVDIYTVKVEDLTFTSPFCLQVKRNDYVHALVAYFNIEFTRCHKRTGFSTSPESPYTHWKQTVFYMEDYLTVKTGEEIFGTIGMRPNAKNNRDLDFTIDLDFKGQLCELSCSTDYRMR
Sequence of PRMT8 (Q9NR22 whole entry, species assumed): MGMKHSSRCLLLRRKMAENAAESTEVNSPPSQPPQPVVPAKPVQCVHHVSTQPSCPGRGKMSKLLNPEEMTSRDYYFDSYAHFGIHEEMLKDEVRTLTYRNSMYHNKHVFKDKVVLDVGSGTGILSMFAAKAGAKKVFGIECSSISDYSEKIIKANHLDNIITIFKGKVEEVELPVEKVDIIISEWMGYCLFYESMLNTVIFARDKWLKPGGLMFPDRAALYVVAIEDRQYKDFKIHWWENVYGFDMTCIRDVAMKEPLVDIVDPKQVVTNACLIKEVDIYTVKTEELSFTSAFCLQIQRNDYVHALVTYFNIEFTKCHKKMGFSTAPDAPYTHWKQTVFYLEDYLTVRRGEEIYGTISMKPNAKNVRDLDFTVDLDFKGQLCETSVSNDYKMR
Sequence of PRMT5 (O14744 whole entry, species assumed): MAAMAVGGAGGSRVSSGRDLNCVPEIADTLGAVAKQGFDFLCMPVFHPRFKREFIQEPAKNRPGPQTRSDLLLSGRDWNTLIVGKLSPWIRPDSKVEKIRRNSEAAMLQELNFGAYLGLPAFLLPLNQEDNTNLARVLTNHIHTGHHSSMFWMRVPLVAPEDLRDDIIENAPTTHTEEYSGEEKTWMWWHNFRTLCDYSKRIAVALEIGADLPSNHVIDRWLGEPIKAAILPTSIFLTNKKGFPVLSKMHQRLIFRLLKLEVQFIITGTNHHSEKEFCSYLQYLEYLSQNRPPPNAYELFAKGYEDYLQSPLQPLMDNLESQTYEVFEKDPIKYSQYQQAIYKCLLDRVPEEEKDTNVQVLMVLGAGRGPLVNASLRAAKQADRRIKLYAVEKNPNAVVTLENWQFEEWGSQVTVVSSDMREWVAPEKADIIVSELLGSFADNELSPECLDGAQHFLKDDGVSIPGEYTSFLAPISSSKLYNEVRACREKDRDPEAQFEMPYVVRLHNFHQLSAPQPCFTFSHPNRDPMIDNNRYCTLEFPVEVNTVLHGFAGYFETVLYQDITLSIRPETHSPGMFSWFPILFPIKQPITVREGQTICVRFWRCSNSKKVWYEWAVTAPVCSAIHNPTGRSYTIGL
Sequence of PRMT5 (Q9BQA1 whole entry partner, species assumed): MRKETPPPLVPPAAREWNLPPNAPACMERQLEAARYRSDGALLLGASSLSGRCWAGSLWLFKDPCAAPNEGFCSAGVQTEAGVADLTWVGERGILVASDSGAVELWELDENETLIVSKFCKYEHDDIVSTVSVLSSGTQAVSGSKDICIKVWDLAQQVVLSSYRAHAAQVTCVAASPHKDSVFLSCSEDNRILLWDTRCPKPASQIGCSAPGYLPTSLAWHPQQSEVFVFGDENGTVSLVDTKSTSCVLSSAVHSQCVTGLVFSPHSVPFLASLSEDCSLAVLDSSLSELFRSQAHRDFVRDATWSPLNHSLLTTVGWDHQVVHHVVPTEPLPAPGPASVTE

For the molecule `Nc1ncnc2c1ncn2[C@@H]1O[C@H](CSCCNC(=O)NCc2ccccc2)[C@@H](O)[C@H]1O` [Compound 7a, 1-(2-((((2S,3S,4R,5R)-5-(6-amino-9H-purin-9-yl)-3,4-dihydroxytetrahydrofuran-2-yl)methyl)thio)ethyl)-3-benzylurea], the IC50 with PRMT3/4/5 is 138 to 351 nM; at PRMT5 it was 351 nM; in the experiment with PRMT4 [3] it was 140 ± 13 nM. For the same molecule, the ΔTm at 100 µM on PRMT1 [1] came out at 0.6 °C. The inhibition at 10 µM is 30% on PRMT1 [2], 97% at PRMT4 [4] and less than 35% against PRMT8.

Usually IC50 stands for the concentration needed to halve the response being measured. As usually defined, the ΔTm is the shift of the melting midpoint relative to a reference. As a reminder, the inhibition is how much of the control response was suppressed.
